Experimental data reported in patent publication US20250339426A1, “GCN2 MODULATOR FOR TREATING CANCER” (HIBERCELL, INC., priority 2022, published 2025).
pEC50: −log10 of the molar value.

What was measured:
[1] = test system: ATF4; assay: ATF4 activity assay (HEK293-ATF4-Luc, luciferase); format: cell-based; conditions: 12.5 nM Halofuginone, 6 hours, FIG. 3
Description: HEK293-ATF4-Luc cells were with culture medium 1.5e^5 cells/mL and 25 μL of cell suspension was added into each well of 384-well cell culture plate (Corning, CLS3570-50EA) as designated and transferred into 37° C.-5% CO2 incubator (Thermo Scientific) overnight for cell attachment. HC-7366 was serially diluted to 11 concentrations by 3-fold dilution in DMSO and 25 nL of stock was plated into cell plate by Echo550 (Labcyte, Echo550), then incubated for 30 minutes at 37° C. After HC-7366 treatment, cells were treated with either DMSO or 12.5 nM Halofuginone to activate GCN2 for 6 hours. After 6 hours, 25 μL of One-Glo reagent (Promega, cat #: E6120) was added into each well to be detected (at 1:1 to culture medium). Then the plates were placed at room temperature for 10 min followed by luciferase luminescence reading on EnVision (PerkinElmer). The data were analyzed by XLfit (v5.3.1.3), equation 201.

[2] = test system: ASNS, PSAT1, PHGDH, PUMA, S100A8/A9 in KG-1 tumors; assay: Tumor IHC, KG-1 tumors; format: in vivo, NOD SCID mice
Description: Immunohistochemical analysis was carried out on tumors that were collected at the end of the study described in Example 6. Formalin-fixed paraffin-embedded samples were sectioned at 5 μm thickness and mounted on Superfrost Plus microscope slides (Fisher Scientific). All immunohistochemical (IHC) staining was performed on Bond Rx auto-stainer (Leica Biosystems) using the conventional TSA-amplified detection system. Primary antibodies used were as follows: a-ASNS (Cell Signaling Technology #92479), a-PUMA (Cell Signaling Technology #98672), a-PSAT1 (Proteintech #10501-1-AP), a-PHGDH (Proteintech #14719-1-AP), HIF-1a-Novus Biologicals NB 100-479, HIF-2a-Novus Biologicals NB100-122SS, and GLUT-1-EMB Biosciences 07-1401. TSA-conjugated Alexa488, Alexa 568 and Alexa647 fluorophores from Invitrogen (#B40953, #B40956, and #B40958) were used at 1:500 dilution. Slides were counterstained with DAPI and cover slipped using Mowiol anti-fade mounting media (Sigma #D2522).
Slides were imaged with Aperio Versa 200 (Leica Biosystems) whole-slide scanner using 10×/0.32NA objective, and the data were analyzed using custom-written macros in ImageJ/FIJI (NIH). Briefly, 150 μm of outer edges of the tumor sections and necrotic regions (determined by lack of 4′,6-diamidino-2-phenylindole (DAPI) signal or presence of condensed DNA) were eliminated from the analysis. Gaussian-blurred DAPI channel was used to measure the area of the tumor tissue. Scans of immune-staining were processed to remove background, then total intensity value above appropriate threshold levels was measured and normalized to tissue area. All graphing and statistics (one-way ANOVA and pair-wise comparisons) were performed using Prism GraphPad.
Slides were deparaffinized, rehydrated and heat mediated antigen retrieval was conducted with AR6 buffer (Akoya). Slides were blocked with Roche diagnostics antibody diluent (Fisher) and stained with primary antibodies for 1 hr at 110 rpm. After washing, horseradish peroxidase (HRP)-conjugated secondary antibodies were added for 10 mins at 110 rpm. After washing, OPAL detection dye (Akoya) was added for a static 10 min incubation. Antigen retrieval was performed post OPAL staining, followed by DAPI staining and slide covering. Multispectral images were captured on the Polaris imaging system (Akoya) and spectral unmixing, cell segmentation and phenotyping was performed using Inform Tissue Finder software (Akoya). Imaging data was converted into .csv files and imported into Flowjo for analysis of S100A8/A9 percent positive cells. Primary antibodies used were rabbit anti-human/mouse S100A8/A9 (Clone RM1038, Abcam ab288715, paired with Opal 570).

[3] = test system: patient-derived Champions' human AML models; assay: Ex vivo AML PDX cell viability (Cell Titer Glo), 30 models; format: cell-based; conditions: for pEC50: Homo sapiens
Description: . Cell viability was assayed after treating PDX models with DMSO or HC-7366 for 6 days using a plate-based luminescence assay (Cell Titer Glo). […]
EC50 values were calculated to the bottom of the curve and are provided below. Viability curves are provided for the models CTG-2229 (FIG. 81), CTG-3680 (FIG. 82), CTG-3667 (FIG. 83), CTG-2456 (FIG. 84), CTG-2457 (FIG. 85), and CTG-2454 (FIG. 86).

[4] = test system: HCT116 (human colorectal cancer cells); assay: In vivo tumor growth inhibition, HCT116 xenograft; parameters: species or system Athymic Nude-Foxn1nu mice
Description: HCT116 (human colorectal cancer cells): Female 7-8 weeks old Athymic Nude-Foxn1nu mice were inoculated subcutaneously on the right flank with HCT116 tumor cells (5 ×10^6) in 0.1 ml of McCoy's 5a medium without serum for tumor development. Single agent HC-7366 was dosed at 3 or 30 mg/kg (twice daily, orally), Trametinib at 1 mg/kg (once a day, orally) and Alpelisib at 50 mg/kg (once a day, orally). HC-7366 was combined with either Trametinib or Alpelisib. The treatments were started when the mean tumor size reached approximately 270 mm^3 at Day 18 post inoculation and continued until end of study (FIGS. 63-64).
(§1) [formula] • 2.2.2 Tumor Measurements: The measurement of tumor size was conducted three times weekly with a caliper and recorded. The tumor volume (mm^3) was estimated using the formula: TV=a×b^2/2, where “a” and “b” is long and short diameters of a tumor, respectively. Tumor volume was calculated using the formula [tumor volume (mm^3)=π/6×length×width^2).
(§2) Regression was calculated using the formula=100×ΔT/T initial, if ΔT<0. Animals with 0 mm^3 tumor volume (no measurable tumor) for three consecutive measurements were considered as complete responders and animals with 50% tumor regressions were partial responders.

[5] = test system: OCI-AML2 (human AML cancer cells); assay: In vivo tumor growth inhibition, OCI-AML2 xenograft; parameters: species or system NOD SCID mice
Description: OCI-AML2 (human AML cancer cells): Female 6-8 weeks old NOD SCID mice were inoculated subcutaneously on the right flank with OCI-AML2 tumor cells (5×10^6) in RPMI 1640 without serum for tumor development. The treatments were started when the mean tumor size reached approximately 149 mm^3 at Day 7 after cell inoculation and continued until end of study by twice daily oral gavage dosing of HC-7366 at listed doses (vehicle, 0.3 mg/kg HC-7366, 1 mg/kg HC-7366, 3 mg/kg HC-7366, 10 mg/kg HC-7366, or 30 mg/kg HC-7366, FIG. 19).
as §1, §2

[6] = end of study (day 27), highest induction at 1 and 3 mg/kg

Structure (SMILES): CNC(=O)c1ncn2cc(-c3c(F)ccc(NS(=O)(=O)c4cc(Cl)cnc4OC)c3F)ncc12 [HC-7366, 6-(3-((5-chloro-2-methoxypyridine)-3-sulfonamido)-2,6-difluorophenyl)-N-methylimidazo[1,5-a]pyrazine-1-carboxamide]
- ATF4 activity, cells treated with HC-7366 and Halofuginone [1]: GCN2 inhibitory effect
- protein levels of S100A8/A9 ([2]; 1 and 3 mg/kg doses, day 27): potently reduced
- PUMA levels ([2]; day 27): not changed
- ASNS by IHC [2, 6]: potently induced
- PHGDH by IHC [2, 6]: potently induced
- PSAT1 by IHC [2, 6]: potently induced
- viability of primary AML PDX cells ([3]; 4.57-10,000 nM, 6 days): potently reduced viability
- pEC50 ([3]; 5 PDX models, resistant responders): 5.65 to 6.03
- pEC50 ([3]; 11 PDX models, sensitive responders): > 7.00
- pEC50 ([3]; 12 PDX models, moderate responders): 6.46 to 7.00
- response ([3]; two models): no response
- TGI ([4]; HC-7366 3 mg/kg twice daily, alpelisib study (FIG. 63), trend): ~38%
- effect on tumor growth ([4]; HC-7366 30 mg/kg twice daily, alpelisib study (FIG. 63)): did not reduce tumor growth
- efficacy ([4]; HC-7366 at either 3 or 30 mg/kg, trametinib study (FIG. 64)): did not show efficacy
- TGI ([5]; 10 mg/kg twice daily oral): about 47%
- TGI ([5]; 30 mg/kg twice daily oral): ~51%
